Read-outs that look alike come from different tables or passages of the source.
Key:
[1] = test system: phosphorylated 4E-BP1 Thr37/46 (p4E-BP1 Thr37/46), mTORC1 activity, PC3 cells; experiment: mTOR target engagement assay, immunofluorescent cell-based, p4E-BP1 Thr37/46 readout (mTORC1 activity); conditions: read-out: p4E-BP1 Thr37/46 IC50
Summary of the method: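 Cell-based immunofluorescence in PC3 cells: serially diluted compounds (0.25% DMSO, 5% FBS) applied for ninety minutes at 37° C before fixation and overnight 4° C staining of p4E-BP1 Thr37/46. Untreated DMSO wells set maximal phosphorylation; IC50 obtained by logistic fitting.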

[2] = test system: phosphorylated AKT Ser473 (pAKT S473), mTORC2 activity, PC3 cells; experiment: mTOR target engagement assay, immunofluorescent cell-based, pAKT S473 readout (mTORC2 activity)
Summary of the method: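 After blocking, cells were stained overnight at 4 °C with anti-pAKT S473 antibody, then a fluorescent secondary; inhibition was read as reduced fluorescence intensity.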

[3] = Homo sapiens, PC-3, Table 7-2, PC3 cells
[4] = Homo sapiens, PC-3, PC3 cells, compound treatment ninety minutes at 37° C.
[5] = Homo sapiens, PC-3, Table 7-4, PC3 cells
[6] = Homo sapiens, PC-3, Table 7-5, PC3 cells
[7] = Homo sapiens, PC-3, Table 7-8, PC3 cells

Compound: CCCC(O)c1ccc(-c2cnn3c(N)c(S(C)(=O)=O)c([C@@H]4C[C@H]5CC[C@@H](C4)N5C(=O)c4nnc[nH]4)nc23)cn1 (stereo partly drawn) [Compound 7.25, ((1R,3s,5S)-3-(7-amino-3-(6-(1-hydroxybutyl)pyridin-3-yl)-6-(methylsulfonyl)pyrazolo[1,5-a]pyrimidin-5-yl)-8-azabicyclo[3.2.1]octan-8-yl)(4H-1,2,4-triazol-3-yl)methanone]
- IC50 [1, 3]: 1000 to 10000 nM
- IC50 [2, 3]: 1000 to 10000 nM

Compound: CCC(O)c1ccc(-c2cnn3c(N)c(S(C)(=O)=O)c([C@@H]4C[C@H]5CC[C@@H](C4)N5C(=O)c4nnc[nH]4)nc23)cn1 (stereo partly drawn) [Compound 7.26, ((1R,3s,5S)-3-(7-amino-3-(6-(1-hydroxypropyl)pyridin-3-yl)-6-(methylsulfonyl)pyrazolo[1,5-a]pyrimidin-5-yl)-8-azabicyclo[3.2.1]octan-8-yl)(4H-1,2,4-triazol-3-yl)methanone]
- IC50 [1, 3]: 100 to 1000 nM
- IC50 [2, 3]: 100 to 1000 nM

Compound: CC(C)(O)c1ccc(-c2cnn3c(N)c(S(C)(=O)=O)c([C@@H]4C[C@H]5CC[C@@H](C4)N5C(=O)c4nnc[nH]4)nc23)cn1 [Compound 7.27, ((1R,3s,5S)-3-(7-amino-3-(6-(2-hydroxypropan-2-yl)pyridin-3-yl)-6-(methylsulfonyl)pyrazolo[1,5-a]pyrimidin-5-yl)-8-azabicyclo[3.2.1]octan-8-yl)(1H-1,2,4-triazol-5-yl)methanone]
- IC50 [1, 3]: 1 to 100 nM
- IC50 [2, 3]: 1 to 100 nM

Compound: Cc1n[nH]c(C(=O)N2[C@@H]3CC[C@H]2C[C@H](c2nc4c(-c5ccc(C6(O)CCC6)nc5)cnn4c(N)c2S(C)(=O)=O)C3)n1 [Compound 7.29, ((1R,3s,5S)-3-(7-amino-3-(6-(1-hydroxycyclobutyl)pyridin-3-yl)-6-(methylsulfonyl)pyrazolo[1,5-a]pyrimidin-5-yl)-8-azabicyclo[3.2.1]octan-8-yl)(3-methyl-1H-1,2,4-triazol-5-yl)methanone]
- IC50 ([1]; Table 7-2, PC3 cells): 100 to 1000 nM
- IC50 ([2]; Table 7-2, PC3 cells): 100 to 1000 nM

Compound: CS(=O)(=O)c1c([C@@H]2C[C@H]3CC[C@@H](C2)N3C(=O)c2cnn[nH]2)nc2c(-c3ccc(C4(O)CCC4)nc3)cnn2c1N [Compound 7.30, ((1R,3s,5S)-3-(7-amino-3-(6-(1-hydroxycyclobutyl)pyridin-3-yl)-6-(methylsulfonyl)pyrazolo[1,5-a]pyrimidin-5-yl)-8-azabicyclo[3.2.1]octan-8-yl)(1H-1,2,3-triazol-5-yl)methanone]
- IC50 ([1]; Table 7-2, PC3 cells): 100 to 1000 nM
- IC50 ([2]; Table 7-2, PC3 cells): 100 to 1000 nM

Compound: COCCOCc1ccc(-c2cnn3c(N)c(C(C)=O)c([C@@H]4C[C@H]5CC[C@@H](C4)N5C(=O)c4nnc[nH]4)nc23)cn1 [Compound 7.31, 1-(5-((1R,3s,5S)-8-(4H-1,2,4-triazole-3-carbonyl)-8-azabicyclo[3.2.1]octan-3-yl)-7-amino-3-(6-((2-methoxyethoxy)methyl)pyridin-3-yl)pyrazolo[1,5-a]pyrimidin-6-yl)ethanone]
- IC50 [1, 4]: 1000 to 10000 nM
- IC50 [2, 4]: 1000 to 10000 nM

Compound: COCCOCc1ccc(-c2cnn3c(N)c(S(C)(=O)=O)c([C@@H]4C[C@H]5CC[C@@H](C4)N5C(=O)c4nnc[nH]4)nc23)cn1 [Compound 7.32, ((1R,3s,5S)-3-(7-amino-3-(6-((2-methoxyethoxy)methyl)pyridin-3-yl)-6-(methylsulfonyl)pyrazolo [1,5-a]pyrimidin-5-yl)-8-azabicyclo[3.2.1]octan-8-yl)(4H-1,2,4-triazol-3-yl)methanone]
- IC50 [1, 4]: 1000 to 10000 nM
- IC50 [2, 4]: > 10000 nM

Compound: CC(=O)c1c([C@@H]2C[C@H]3CC[C@@H](C2)N3C(=O)c2nnc[nH]2)nc2c(-c3ccc([C@@H](C)O)nc3)cnn2c1N [Compound 7.33, 1-(5-((1R,3s,5S)-8-(4H-1,2,4-triazole-3-carbonyl)-8-azabicyclo[3.2.1]octan-3-yl)-7-amino-3-(6-((R)-1-hydroxyethyl)pyridin-3-yl)pyrazolo[1,5-a]pyrimidin-6-yl)ethanone]
- IC50 [1, 5]: 100 to 1000 nM
- IC50 [2, 5]: 100 to 1000 nM

Compound: CC(=O)c1c([C@@H]2C[C@H]3CC[C@@H](C2)N3C(=O)c2nnc[nH]2)nc2c(-c3ccc([C@H](C)O)nc3)cnn2c1N [Compound 7.34, 1-(5-((1R,3s,5S)-8-(4H-1,2,4-triazole-3-carbonyl)-8-azabicyclo[3.2.1]octan-3-yl)-7-amino-3-(6-((S)-1-hydroxyethyl)pyridin-3-yl)pyrazolo[1,5-a]pyrimidin-6-yl)ethanone]
- IC50 [1, 5]: 1 to 100 nM
- IC50 [2, 5]: 1 to 100 nM

Compound: CS(=O)(=O)c1c([C@@H]2C[C@H]3CC[C@@H](C2)N3C(=O)c2nnc[nH]2)nc2c(-c3ccc(CO)nc3)cnn2c1N [Compound 7.35, ((1R,3s,5S)-3-(7-amino-3-(6-(hydroxymethyl)pyridin-3-yl)-6-(methylsulfonyl)pyra-zolo[1,5-a]pyrimidin-5-yl)-8-azabicyclo[3.2.1]octan-8-yl)(4H-1,2,4-triazol-3-yl)methanone]
- IC50 [1, 6]: 100 to 1000 nM
- IC50 [2, 6]: 100 to 1000 nM

Compound: CC(=O)c1c([C@@H]2C[C@H]3CC[C@@H](C2)N3C(=O)c2nnc[nH]2)nc2c(-c3cnc(C(C)O)s3)cnn2c1N (stereo partly drawn) [Compound 7.36, 1-(5-((1R,3s,5S)-8-(4H-1,2,4-triazole-3-carbonyl)-8-azabicyclo[3.2.1]octan-3-yl)-7-amino-3-(2-(1-hydroxyethyl)thiazol-5-yl)pyrazolo[1,5-a]pyrimidin-6-yl)ethanone]
- IC50 [1, 4]: 1000 to 10000 nM
- IC50 [2, 4]: 1000 to 10000 nM

Compound: CC(C)(O)c1ccc(-c2cnn3c(N)c(C4CC4)c([C@@H]4C[C@H]5CC[C@@H](C4)N5C(=O)c4nnc[nH]4)nc23)cn1 [Compound 7.39, ((1R,3s,5S)-3-(7-amino-6-cyclopropyl-3-(6-(2-hydroxypropan-2-yl)pyridin-3-yl)pyrazolo[1,5-a]pyrimidin-5-yl)-8-azabicyclo[3.2.1]octan-8-yl)(4H-1,2,4-triazol-3-yl)methanone]
- IC50 [1, 7]: 1 to 100 nM
- IC50 [2, 7]: 1 to 100 nM

Compound: CC(=O)c1c([C@@H]2C[C@H]3CC[C@@H](C2)N3C(=O)c2nnc[nH]2)nc2c(-c3ccc(C4(O)CCC4)nc3)cnn2c1N [Compound 7.40, 1-(5-((1R,3s,5S)-8-(4H-1,2,4-triazole-3-carbonyl)-8-azabicyclo[3.2.1]octan-3-yl)-7-amino-3-(6-(1-hydroxycyclobutyl)pyridin-3-yl)pyrazolo[1,5-a]pyrimidin-6-yl)ethanone]
- IC50 [1, 7]: 1 to 100 nM
- IC50 [2, 7]: 1 to 100 nM

Compound: CS(=O)(=O)c1c([C@@H]2C[C@H]3CC[C@@H](C2)N3C(=O)c2nnc[nH]2)nc2c(-c3ccc(C4(O)CCC4)nc3)cnn2c1N [Compound 7.41, ((1R,3s,5S)-3-(7-amino-3-(6-(1-hydroxycyclobutyl)pyridin-3-yl)-6-(methylsulfonyl)pyrazolo [1,5-a]pyrimidin-5-yl)-8-azabicyclo[3.2.1]octan-8-yl)(4H-1,2,4-triazol-3-yl)methanone]
- IC50 [1, 7]: 1 to 100 nM
- IC50 [2, 7]: 1 to 100 nM

Compound: Nc1c(Br)c([C@@H]2C[C@H]3CC[C@@H](C2)N3C(=O)c2nnc[nH]2)nc2c(-c3ccc(C4(O)CCC4)nc3)cnn12 [Compound 7.42, ((1R,3s,5S)-3-(7-amino-6-bromo-3-(6-(1-hydroxycyclobutyl)pyridin-3-yl)pyrazolo[1,5-a]pyrimidin-5-yl)-8-azabicyclo[3.2.1]octan-8-yl)(4H-1,2,4-triazol-3-yl)methanone]
- IC50 [1, 7]: 100 to 1000 nM
- IC50 [2, 7]: 1000 to 10000 nM

Compound: Nc1c(C2CC2)c([C@@H]2C[C@H]3CC[C@@H](C2)N3C(=O)c2nnc[nH]2)nc2c(-c3ccc(C4(O)CCC4)nc3)cnn12 [Compound 7.43, ((1R,3s,5S)-3-(7-amino-6-cyclopropyl-3-(6-(1-hydroxycyclobutyl)pyridin-3-yl)pyrazolo[1,5-a]pyrimidin-5-yl)-8-azabicyclo[3.2.1]octan-8-yl)(4H-1,2,4-triazol-3-yl)methanone]
- IC50 [1, 7]: 100 to 1000 nM
- IC50 [2, 7]: 100 to 1000 nM

Compound: CC(=O)c1c([C@@H]2C[C@H]3CC[C@@H](C2)N3C(=O)c2nnc[nH]2)nc2c(-c3ccc(C4(O)COC4)nc3)cnn2c1N [Compound 7.45, 1-(5-((1R,3s,5S)-8-(4H-1,2,4-triazole-3-carbonyl)-8-azabicyclo[3.2.1]octan-3-yl)-7-amino-3-(6-(3-hydroxyoxetan-3-yl)pyridin-3-yl)pyrazolo[1,5-a]pyrimidin-6-yl)ethanone]
- IC50 [1, 7]: 100 to 1000 nM
- IC50 [2, 7]: 100 to 1000 nM

Compound: CS(=O)(=O)c1c([C@@H]2C[C@H]3CC[C@@H](C2)N3C(=O)c2nnc[nH]2)nc2c(-c3ccc(C4(O)CCCC4)nc3)cnn2c1N [Compound 7.46, ((1R,3s,5S)-3-(7-amino-3-(6-(1-hydroxycyclopentyl)pyridin-3-yl)-6-(methylsulfonyl)pyrazolo [1,5-a]pyrimidin-5-yl)-8-azabicyclo[3.2.1]octan-8-yl)(4H-1,2,4-triazol-3-yl)methanone]
- IC50 [1, 7]: 1 to 100 nM
- IC50 [2, 7]: 1 to 100 nM

Compound: CS(=O)(=O)c1c([C@@H]2C[C@H]3CC[C@@H](C2)N3C(=O)CO)nc2c(-c3ccc(C4(O)CCCC4)nc3)cnn2c1N [Compound 7.47, 1-((1R,3s,5S)-3-(7-amino-3-(6-(1-hydroxycyclopentyl)pyridin-3-yl)-6-(methylsulfonyl)pyrazolo [1,5-a]pyrimidin-5-yl)-8-azabicyclo[3.2.1]octan-8-yl)-2-hydroxyethanone]
- IC50 [1, 7]: 100 to 1000 nM
- IC50 [2, 7]: 100 to 1000 nM
